Among the data in patent publication US20250195521A1 (Revolution Medicines, Inc., priority 2020, published 2025) are IC50 values, retold here.

A word on the IC50: it is the concentration needed to halve the response being measured.

Assay [1] deals with NCI-H358 cells (K-Ras G12C). In words: CellTiter-Glo cell viability, NCI-H358. Format: cell-based, human. To be noted: Homo sapiens, NCI-H358, 120 h, K-Ras G12C, 5-day treatment; read-out: H358 Cell Viability IC50. Summed up: (§1)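 Compounds dispensed directly onto seeded cells; on day 5 plates equilibrated ~30 min to room temperature and luminescence read. Signal normalized to DMSO average (%) and fitted by four-parameter logistic.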

Assay [2] concerns Capan-1 cells (K-Ras G12V). In words: CellTiter-Glo cell viability, Capan-1. Format: cell-based, human. Particulars: Homo sapiens, CAPAN-1, 120 h, K-Ras G12V, 5-day treatment; read-out: Capan-1 Cell Viability IC50. Summed up:
as §1
For orientation: ATP-based viability assays read luminescence as a measure of living cells.

Assay [3] concerns the target KRAS G12C (Homo sapiens (Human), UniProt P01116+P62937, G12C). The assay is described as follows: Ras-Raf disruption/FRET/MOA assay (BRAF RBD, Cyclophilin A). Format: biochemical. Particulars: read-out: KRAS G12C FRET IC50. Summed up:
(§2)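 Ras-GMPPNP (12.5 nM), BRAF RBD (50 nM) and 25 μM Cyclophilin A were incubated with compound for 3 h at 25° C, then detected 1.5 h with anti-His Eu and anti-GST APC; IC50 values follow from the reduced TR-FRET ratio.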

Assay [4] concerns the target KRAS G12D (Homo sapiens (Human), UniProt P01116+P62937, G12D). Described as above. Format: biochemical. Particulars: read-out: KRAS G12D FRET IC50. Summed up:
as §2

Assay [5] concerns the target KRAS G12S (Homo sapiens (Human), UniProt P01116+P62937, G12S). The assay is described as above. Format: biochemical. Particulars: read-out: KRAS G12S FRET IC50. The procedure, abridged:
as §2

In assay [6] the target is KRAS G12V (Homo sapiens (Human), UniProt P01116+P62937, G12V). The assay is described as above. Particulars: read-out: KRAS G12V FRET IC50. Format: biochemical. Summed up:
as §2

Assay [7] addresses KRAS G13C (Homo sapiens (Human), UniProt P01116+P62937, G13C). The description is as above. To be noted: read-out: KRAS G13C FRET IC50. Format: biochemical. The procedure, abridged:
as §2

Assay [8] has as its target KRAS Q61H (Homo sapiens (Human), UniProt P01116+P62937, Q61H). The description is as above. Format: biochemical. Summed up: as §2
In assay [9] the target is KRAS WT (Homo sapiens (Human), UniProt P01116+P62937). Described as above. Format: biochemical. Particulars: read-out: KRAS WT FRET data IC50. Summed up:
as §2

Assay [10] concerns the target NRAS G12C (Homo sapiens (Human), UniProt P01111+P62937, G12C). Described as above. Format: biochemical. Particulars: read-out: NRAS G12C FRET data IC50. The procedure, abridged:
(§3)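 First, 25 μM Cyclophilin A, 12.5 nM His6-Ras-GMPPNP and 50 nM GST-BRAF RBD are mixed with diluted compound at pH 7.3. Next, 3 h at 25° C. Then 10 nM anti-His Eu-W1024 plus 50 nM anti-GST allophycocyanin for 1.5 h before TR-FRET reading.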

Assay [11] addresses NRAS Q61K (Homo sapiens (Human), UniProt P01111+P62937, Q61K). Described as above. Format: biochemical. Summed up: as §3
Assay [12] concerns the target NRAS Q61R (Homo sapiens (Human), UniProt P01111+P62937, Q61R). The description is as above. Format: biochemical. The procedure, abridged:
as §3

In assay [13] the target is NRAS WT (Homo sapiens (Human), UniProt P01111+P62937). The assay is described as above. Format: biochemical. Summed up:
as §3

In assay [14] the target is KRAS G13D (Homo sapiens (Human), UniProt P01116+P62937, G13D). The description is as above. Format: biochemical. Particulars: read-out: KRAS G13D FRET data IC50. Summed up: as §2
Sequence of KRAS G13D (P01116 other isoform, or with tags, fused parts or gaps G13D): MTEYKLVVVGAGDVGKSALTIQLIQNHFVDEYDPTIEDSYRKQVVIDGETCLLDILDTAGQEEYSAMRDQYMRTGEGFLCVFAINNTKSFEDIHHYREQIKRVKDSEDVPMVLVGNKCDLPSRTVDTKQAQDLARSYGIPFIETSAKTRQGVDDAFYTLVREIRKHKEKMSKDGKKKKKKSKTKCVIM
Sequence of KRAS G13D (P62937 whole entry): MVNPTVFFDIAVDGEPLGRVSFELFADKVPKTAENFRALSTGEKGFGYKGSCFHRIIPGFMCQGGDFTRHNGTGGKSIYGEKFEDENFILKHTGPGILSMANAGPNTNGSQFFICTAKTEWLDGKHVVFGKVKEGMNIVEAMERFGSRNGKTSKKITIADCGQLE

Sequence of KRAS Q61H (P01116 other isoform, or with tags, fused parts or gaps Q61H): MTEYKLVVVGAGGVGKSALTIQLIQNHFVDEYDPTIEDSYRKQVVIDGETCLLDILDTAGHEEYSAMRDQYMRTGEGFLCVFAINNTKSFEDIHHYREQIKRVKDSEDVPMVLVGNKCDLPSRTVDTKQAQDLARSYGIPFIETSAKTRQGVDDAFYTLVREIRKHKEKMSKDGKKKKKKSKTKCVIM
Sequence of KRAS Q61H (P62937 whole entry): as the sequence (P62937 whole entry) above
Sequence of KRAS G12D (P01116 other isoform, or with tags, fused parts or gaps G12D): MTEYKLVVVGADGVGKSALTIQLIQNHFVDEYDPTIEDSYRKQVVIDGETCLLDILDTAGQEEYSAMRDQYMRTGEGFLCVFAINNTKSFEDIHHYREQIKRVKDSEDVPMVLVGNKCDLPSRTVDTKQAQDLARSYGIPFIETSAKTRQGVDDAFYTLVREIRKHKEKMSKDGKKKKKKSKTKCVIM
Sequence of KRAS G12D (P62937 whole entry): as the sequence (P62937 whole entry) above
Sequence of KRAS G13C (P01116 other isoform, or with tags, fused parts or gaps G13C): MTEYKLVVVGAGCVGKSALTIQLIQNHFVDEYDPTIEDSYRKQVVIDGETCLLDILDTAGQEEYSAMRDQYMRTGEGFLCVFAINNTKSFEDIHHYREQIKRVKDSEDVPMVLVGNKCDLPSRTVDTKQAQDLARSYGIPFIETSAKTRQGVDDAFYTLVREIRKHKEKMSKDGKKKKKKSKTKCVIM
Sequence of KRAS G13C (P62937 whole entry): as the sequence (P62937 whole entry) above
Sequence of KRAS G12S (P01116 other isoform, or with tags, fused parts or gaps G12S): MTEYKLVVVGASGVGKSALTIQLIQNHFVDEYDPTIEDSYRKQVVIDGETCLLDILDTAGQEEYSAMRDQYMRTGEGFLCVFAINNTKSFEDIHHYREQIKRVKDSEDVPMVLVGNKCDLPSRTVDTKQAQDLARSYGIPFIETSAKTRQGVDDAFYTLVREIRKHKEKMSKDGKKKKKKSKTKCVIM
Sequence of KRAS G12S (P62937 whole entry): as the sequence (P62937 whole entry) above
Sequence of KRAS G12V (P01116 other isoform, or with tags, fused parts or gaps G12V): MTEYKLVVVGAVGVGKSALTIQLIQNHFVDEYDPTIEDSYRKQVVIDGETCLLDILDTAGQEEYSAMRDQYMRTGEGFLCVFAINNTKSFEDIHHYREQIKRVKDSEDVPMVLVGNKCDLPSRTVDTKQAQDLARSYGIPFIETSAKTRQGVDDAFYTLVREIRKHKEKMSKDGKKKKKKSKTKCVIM
Sequence of KRAS G12V (P62937 whole entry): as the sequence (P62937 whole entry) above
Sequence of NRAS Q61K (P01111 whole entry Q61K): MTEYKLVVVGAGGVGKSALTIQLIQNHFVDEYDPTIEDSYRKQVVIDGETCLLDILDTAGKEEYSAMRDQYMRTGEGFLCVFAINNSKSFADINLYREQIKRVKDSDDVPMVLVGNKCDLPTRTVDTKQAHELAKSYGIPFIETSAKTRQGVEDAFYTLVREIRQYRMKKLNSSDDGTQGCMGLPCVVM
Sequence of NRAS Q61K (P62937 whole entry): as the sequence (P62937 whole entry) above
Sequence of KRAS G12C (P01116-2 other isoform, or with tags, fused parts or gaps G12C): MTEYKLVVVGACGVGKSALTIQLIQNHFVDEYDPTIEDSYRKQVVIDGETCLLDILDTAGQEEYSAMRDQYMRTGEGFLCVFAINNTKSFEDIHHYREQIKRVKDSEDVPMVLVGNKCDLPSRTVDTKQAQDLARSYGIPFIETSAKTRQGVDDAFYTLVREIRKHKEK
Sequence of KRAS G12C (P62937 whole entry): as the sequence (P62937 whole entry) above
Sequence of NRAS Q61R (P01111 whole entry Q61R): as the sequence (P01111 whole entry Q61K) above, with K61R counted along it
Sequence of NRAS Q61R (P62937 whole entry): as the sequence (P62937 whole entry) above
Sequence of NRAS WT (P01111 whole entry): as the sequence (P01111 whole entry Q61K) above, with K61Q counted along it
Sequence of NRAS WT (P62937 whole entry): as the sequence (P62937 whole entry) above
Sequence of KRAS WT (P01116 other isoform, or with tags, fused parts or gaps): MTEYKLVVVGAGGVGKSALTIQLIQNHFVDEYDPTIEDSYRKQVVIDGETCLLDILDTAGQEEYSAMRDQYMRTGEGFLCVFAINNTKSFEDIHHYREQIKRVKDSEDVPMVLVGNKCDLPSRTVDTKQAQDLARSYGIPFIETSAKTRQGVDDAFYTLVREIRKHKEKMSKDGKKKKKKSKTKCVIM
Sequence of KRAS WT (P62937 whole entry): as the sequence (P62937 whole entry) above
Sequence of NRAS G12C (P01111 whole entry G12C): as the sequence (P01111 whole entry Q61K) above, with G12C, K61Q counted along it
Sequence of NRAS G12C (P62937 whole entry): as the sequence (P62937 whole entry) above

For the compound `CCn1c(-c2cccnc2[C@H](C)OC)c2c3cc(ccc31)-c1csc(n1)C[C@H](NC(=O)[C@H](C(C)C)N(C)C(=O)N1CC3(CCCN(C)C3=O)C1)C(=O)N1CCC[C@H](N1)C(=O)OCC(C)(C)C2` [Compound A453], the half-maximal inhibitory concentration (IC50) is 1000 to 10000 nM in assay [1]; 1000 to 10000 nM in assay [2]; 100 to 1000 nM in [3]; > 10000 nM in assay [4]; 1000 to 10000 nM in [5]; 1000 to 10000 nM in assay [6]. For the same compound, the IC50 in assay [7] fell in the range of 1000 to 10000 nM; in [8], 100 to 1000 nM; in [9] it was 1000 to 10000 nM; in [10], 100 to 1000 nM; in assay [11] it was 100 to 1000 nM; in assay [12] it was 100 to 1000 nM. The compound also showed an IC50 in assay [13] of 1000 to 10000 nM.
Take `CCn1c(-c2cccnc2[C@H](C)OC)c2c3cc(ccc31)-c1csc(n1)C[C@H](NC(=O)[C@H](C(C)C)N(C)C(=O)N1CC[C@@]3(CCNC3=O)C1)C(=O)N1CCC[C@H](N1)C(=O)OCC(C)(C)C2` [Compound A480]: the half-inhibitory concentration (IC50) lay within 100 to 1000 nM in [1]; 100 to 1000 nM in assay [2]; 100 to 1000 nM in assay [3]; 1000 to 10000 nM in assay [4]; 100 to 1000 nM in assay [5]; 100 to 1000 nM in [6]. The IC50 in [7] lay in the range of 100 to 1000 nM; in [14] it was 100 to 1000 nM; in assay [8], 10 to 100 nM; in assay [9] it was 100 to 1000 nM; in assay [10], 100 to 1000 nM; in assay [11], 100 to 1000 nM. Further, the half-maximal inhibitory concentration (IC50) in assay [12] and in assay [13] was 100 to 1000 nM throughout.
As for `CCn1c(-c2cccnc2[C@H](C)OC)c2c3cc(ccc31)-c1cc(CF)cc(c1)C[C@H](NC(=O)[C@H](C(C)C)N(C)C(=O)[C@@H]1OCC[C@@H]1c1ccccc1)C(=O)N1CCC[C@H](N1)C(=O)OCC(C)(C)C2` [Compound A509], the IC50 was in the range of 10 to 100 nM in [1]; 10 to 100 nM in assay [2]; 10 to 100 nM in assay [3]; 100 to 1000 nM in assay [4]; 100 to 1000 nM in [5]; 100 to 1000 nM in [6]. Further, the concentration for half-maximal inhibition (IC50) lay in the range of 10 to 100 nM in assay [7]; 100 to 1000 nM in assay [14]; 10 to 100 nM in assay [8]; 100 to 1000 nM in assay [9]; 10 to 100 nM in [10]; 100 to 1000 nM in assay [11]. Besides, the IC50 in [12] and in [13] was 100 to 1000 nM each time.
On to `CCn1c(-c2cccnc2[C@H](C)OC)c2c3cc(ccc31)-c1csc(n1)C[C@H](NC(=O)[C@H](C(C)C)N(C)C(=O)N1CC3(CCOCC3)C1)C(=O)N1CCC[C@H](N1)C(=O)OCC(C)(C)C2` [Compound A521], for which the 50% inhibitory concentration (IC50) is 10 to 100 nM in assay [1]; 10 to 100 nM in assay [2]; 100 to 1000 nM in assay [3]; 1000 to 10000 nM in assay [4]; 100 to 1000 nM in assay [5]; 100 to 1000 nM in assay [6]. In addition, the IC50 in [7] lay within 100 to 1000 nM; in [14], 1000 to 10000 nM; in assay [8] it was 100 to 1000 nM; in assay [9], 100 to 1000 nM; in assay [10] it was 100 to 1000 nM; in [11], 100 to 1000 nM. The IC50 in assay [12] and in [13] was 100 to 1000 nM in each case.
Consider `CCn1c(-c2cccnc2[C@H](C)OC)c2c3cc(ccc31)-c1csc(n1)C[C@H](NC(=O)[C@H](C(C)C)N(C)C(=O)N1CC(O)(COC)C1)C(=O)N1CCC[C@H](N1)C(=O)OCC(C)(C)C2` [Compound A553], for which the IC50 in assay [1] was 10 to 100 nM; in [2] it was 100 to 1000 nM; in assay [3] it was 100 to 1000 nM; in assay [4] it was 1000 to 10000 nM; in assay [5], 1000 to 10000 nM; in assay [6] it was 100 to 1000 nM. In addition, the IC50 in assay [7] was 100 to 1000 nM; in [14], 1000 to 10000 nM; in assay [8], 100 to 1000 nM; in assay [9], 100 to 1000 nM; in assay [10], 100 to 1000 nM; in assay [11], 100 to 1000 nM. Besides, the IC50 in assay [12] and in [13] was 100 to 1000 nM throughout.
